# From article PMC10931745 (International Journal of Molecular Sciences, 2024)
# System: human mammary epithelial cell line MCF-10A
# Assay: MTT assay, toxicity towards normal cells
# Type: cell-based
# Settings: 72 h
# Procedure: The cell lines used were purchased from American Type Culture Collection (ATCC, Manassas, VA, USA). Human breast cancer cells MCF-7 and MDA-MB-231, human mammary epithelial cell line MCF-10A, and mouse BALB/3T3 embryonic fibroblasts were cultured as already described by some of us. The murine macrophage cell line RAW 264.7 was maintained in Dulbecco’s Modified Eagle’s Medium (DMEM) high glucose (4.5 g/L) supplemented with 10% Fetal Bovine Serum (FBS), 1% L-glutamine, and 100 units/mL of penicillin/streptomycin. The cell cultures were maintained at the temperature of 37 °C in a humidified atmosphere containing 5% CO2.
# The 3-(4,5-dimethylthiazol-2-yl)-2,5-diphenyl-2H-tetrazolium bromide (MTT) assay (Sigma Aldrich (St. Louis, MO, USA)) was carried out to study the in vitro anticancer activities of the complexes, following the previously reported protocol. The cells were incubated for 72 h with different concentrations of the tested compounds (0.1, 1, 10, 25, 50, 100, and 500 µM) and the IC50 values were calculated from the percent (%) of control using the software GraphPad Prism 9 (GraphPad Software, La Jolla, CA, USA).
row,Structure (SMILES),IC50 [µM]
1,"CC(=O)[O][Ag-][c]1n(C)c2c(c(=O)n(C)c(=O)n2C)[n+]1C1CCCCC1O (centres unmarked) [AgL2OAc, 1,3,7-Trimethylxanthin-9-[cyclohexan-2-ol-8-ylidene]Ag(I) Acetate]",> 100
2,"Cn1c(=O)c2c(n(C)[c]([Au-][I])[n+]2CC(O)c2ccccc2)n(C)c1=O (racemic) [AuL1, 1,3,7-Trimethylxanthin-9-[(2-hydroxy-2-phenyl)ethyl-8-ylidene]Au(I) Iodide]",> 100
